Test results published in patent US7074765B2, “Synthetic peptide analogs of Arg-Pro-Pro-Gly-Phe as selective inhibitors of thrombin and thrombin activation of protease activated receptors 1 and 4” (The Regents of the University of Michigan, priority 2003, dated 2006).

Target: α-thrombin (Homo sapiens, UniProt P00734)
Assay: α-thrombin hydrolysis of chromogenic substrate Sar-Pro-Arg-pNA
Format: biochemical
Details: 1 nM α-thrombin; 0–0.5 mM peptide
Description: FIG. 10 examines the ability of MAP4-TH146 (β-Ala-Lys-2Lys-4(D-Arg-Oic-Pro-Gly-Phe)) to block thrombin or thrombocytin-induced proteolysis of recombinant extracellular fragment of human PAR1 (rPAR1EC). In the upper Panels, 1 μg of rPAR1EC in 10 mM Tris-HCI, 200 mM NaCl, pH 8.0 was incubated at 37° C. for 15 min or 45 min with 1 nM α-thrombin or 0.5 μg/ml (16.7 nM) thrombocytin, respectively, in the absence or presence of increasing concentrations of MAP4-TH146 (0.05 to 1.0 mM)). In the middle Panel, the ability of α-thrombin (1 nM) to hydrolyze the chromogenic substrate Sar-Pro-Arg-pNA in the presence or absence of 0–0.5 mM MAP4-TH146 was determined. In the bottom Panel, the ability of thrombocytin (16.7 nM) to hydrolyze 1 mM H-D-Phe-Pip-Arg-paranitroanilide (S2238) in the presence or absence of 0–1.0 mM MAP4-TH146 was determined. […] Alternatively, in the bottom Panel, MAP4-TH146 inhibits thrombocytin proteolysis of rPAR1EC at concentrations below that necessary to block the proteolytic activity of the enzyme.

## β-Ala-Lys-2Lys-4(D-Arg-Oic-Pro-Gly-Phe) [MAP4-rOicPGF]
  effect on α-thrombin hydrolysis of Sar-Pro-Arg-pNA: directly blocking α-thrombin's proteolytic activity
